Reference: patent US20260151403A1, “NEK7 DEGRADERS AND METHODS OF USE THEREOF” (Captor Therapeutics S.A., priority 2022, published 2026)

Assays:
[1] = target: T1, [NEK7]-[compound of formula (I)]-[CRBN/DDB1] complex (Homo sapiens, UniProt Q8TDX7+Q96SW2); assay: AlphaLISA dose response ternary complex formation assay; type: binding; settings: 1 μM compound, normalized to maximum signal of Compound 2 (positive control) and DMSO background; for activation at 1 µM: read-out: Normalized AlphaLISA ternary complex average signal at 1 μM molecule
T1 sequence (Q8TDX7 whole entry): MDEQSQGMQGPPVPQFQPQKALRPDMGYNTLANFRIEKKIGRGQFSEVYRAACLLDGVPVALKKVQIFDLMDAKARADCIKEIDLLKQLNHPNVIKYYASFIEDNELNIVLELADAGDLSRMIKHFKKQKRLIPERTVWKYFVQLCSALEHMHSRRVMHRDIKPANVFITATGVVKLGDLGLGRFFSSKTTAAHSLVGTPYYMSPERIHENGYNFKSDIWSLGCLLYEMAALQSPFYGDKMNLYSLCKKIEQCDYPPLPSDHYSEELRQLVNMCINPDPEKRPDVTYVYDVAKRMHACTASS
T1 sequence (Q96SW2 whole entry): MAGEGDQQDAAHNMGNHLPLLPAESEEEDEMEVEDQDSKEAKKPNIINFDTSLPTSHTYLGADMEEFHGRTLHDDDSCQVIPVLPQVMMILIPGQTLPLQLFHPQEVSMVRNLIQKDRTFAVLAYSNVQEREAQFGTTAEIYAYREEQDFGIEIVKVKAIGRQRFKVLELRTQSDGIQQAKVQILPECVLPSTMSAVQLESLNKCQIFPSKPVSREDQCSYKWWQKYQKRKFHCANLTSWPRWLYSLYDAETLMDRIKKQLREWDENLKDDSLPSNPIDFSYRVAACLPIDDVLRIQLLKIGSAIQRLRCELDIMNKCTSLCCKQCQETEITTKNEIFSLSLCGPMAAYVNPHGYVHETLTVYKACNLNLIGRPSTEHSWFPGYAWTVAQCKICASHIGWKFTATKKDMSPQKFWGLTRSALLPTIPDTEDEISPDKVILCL
T1 sequence (Q16531 whole entry partner): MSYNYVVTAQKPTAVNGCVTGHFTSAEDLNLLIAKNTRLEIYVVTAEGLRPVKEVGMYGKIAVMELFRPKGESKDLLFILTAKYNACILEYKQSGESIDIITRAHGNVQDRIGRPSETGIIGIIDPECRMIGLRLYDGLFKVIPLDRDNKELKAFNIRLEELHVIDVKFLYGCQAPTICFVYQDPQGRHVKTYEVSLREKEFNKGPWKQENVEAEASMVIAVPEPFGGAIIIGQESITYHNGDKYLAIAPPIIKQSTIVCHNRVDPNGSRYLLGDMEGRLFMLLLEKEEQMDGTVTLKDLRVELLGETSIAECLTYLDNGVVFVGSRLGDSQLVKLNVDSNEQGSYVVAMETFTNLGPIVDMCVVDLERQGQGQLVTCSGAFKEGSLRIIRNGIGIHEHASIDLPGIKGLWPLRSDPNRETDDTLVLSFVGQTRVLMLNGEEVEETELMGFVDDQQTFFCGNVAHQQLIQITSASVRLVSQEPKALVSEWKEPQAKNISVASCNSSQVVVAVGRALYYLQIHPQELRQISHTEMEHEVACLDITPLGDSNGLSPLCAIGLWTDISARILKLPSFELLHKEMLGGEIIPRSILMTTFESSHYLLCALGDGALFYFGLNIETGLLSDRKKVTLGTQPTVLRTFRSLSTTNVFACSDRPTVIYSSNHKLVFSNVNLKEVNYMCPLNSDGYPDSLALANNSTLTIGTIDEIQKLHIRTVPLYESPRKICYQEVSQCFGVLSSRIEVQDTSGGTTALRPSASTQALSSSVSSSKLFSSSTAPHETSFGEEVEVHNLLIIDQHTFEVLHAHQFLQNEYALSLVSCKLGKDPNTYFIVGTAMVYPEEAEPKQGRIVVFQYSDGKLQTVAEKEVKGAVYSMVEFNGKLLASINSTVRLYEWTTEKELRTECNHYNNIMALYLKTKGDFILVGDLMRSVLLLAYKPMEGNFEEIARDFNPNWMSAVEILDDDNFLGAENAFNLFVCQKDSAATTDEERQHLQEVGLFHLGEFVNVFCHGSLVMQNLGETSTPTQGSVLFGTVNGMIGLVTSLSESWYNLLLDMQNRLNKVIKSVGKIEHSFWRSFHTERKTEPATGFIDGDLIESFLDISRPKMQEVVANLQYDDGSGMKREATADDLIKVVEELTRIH
Procedure: The effect of the molecular glue compounds of the invention on the formation of a ternary complex composed of [NEK7]-[compound of formula (I)]-[CRBN/DDB1] was investigated with two methods: AlphaLISA dose response assay or HTRF ternary complex assay.
Two types of protein solution were prepared: • 200 nM biotinylated NEK7, 40 μg/ml AlphaScreen Streptavidin-coated Donor Beads in HBS (10 mM HEPES, 150 mM NaCL, pH 7.4) buffer with 0.1% Tween-20 and 1 mM DTT, • 200 nM 6×His-CRBN/Strep-DDB1, 40 μg/ml AlphaLISA Anti-6×His Acceptor beads in HBS buffer with 0.1% Tween-20 and 1 mM DTT.
The prepared solutions were incubated at room temperature for 30 min and then the solution containing the donor beads was mixed with the solution containing the acceptor beads.
The tested compounds were dispensed onto a white 384-well AlphaPlate 384 SW. DMSO was backfilled to all wells, resulting in a final DMSO content of 2%. Wells containing only DMSO served as background. Next, 10 μl of solution with donor and acceptor beads was added to the wells.
The plate was sealed with transparent film and shaken using a VibroTurbulator for 60 sec at room temperature, level 3. The plate was then spun down shortly (10 s, 1000 rcf, room temperature) and incubated at 25° C. for 30 min.
The read-out was performed with PerkinElmer Enspire Multimode Plate Reader (method for AlphaLISA 384-well low volume, Filterset: λexc=680 nm, λem=615 nm).
The results were analyzed as follows: • 1) an average of luminescence for background signal was calculated and used as a negative control; • 2) average of the maximum measured luminescence for Compound 2 was calculated and used as an internal positive control; • 3) raw luminescence values were normalized against positive and negative controls; • 4) Normalized responses to Compound 2 were determined.

[2] = target: T1, [NEK7]-[compound of formula (I)]-[CRBN/DDB1] complex; assay: HTRF ternary complex assay; type: binding; settings: dose-response, 180 min at 25° C.; for EC50: read-out: HTRF ternary complex Average pEC50 by molecule (converted)
Procedure: The effect of the molecular glue compounds of the invention on the formation of a ternary complex composed of [NEK7]-[compound of formula (I)]-[CRBN/DDB1] was investigated.
Mix solution of proteins and reagents was prepared: • 24 nM NEK7, 52.8 nM 6×His-CRBN/Strep-DDB1, 3 nM of Streptavidin-Eu cryptate […] and 6.67 nM of Anti-6×his-d2 […] was prepared in PPI Europium detection buffer (Cisbio) with 1 mM DTT.
The tested compounds in dose-response were dispensed onto a white 384-well low volume plate (Greiner, 784075). DMSO was backfilled to all wells, resulting in a final DMSO content of 0.5%. Wells containing only DMSO served as background.
The plate was sealed with transparent film and shaken using a VibroTurbulator for 60 sec at level 3.
The plate was then spun down shortly (10 s, 1000 rcf) and incubated at 25° C. for 180 min.
The read-out was performed with plate reader (Pherastar, BMG Labtech) in time resolved fluorescence mode. Filterset: TR 337 665 620.
The results were analyzed as follows: • 1) an average of fluorescence for background signal was calculated and used as a negative control; • 2) raw fluorescence values for tested compounds were normalized against negative controls; • 3) saturation curve was fitted to specific binding with Hill slope model; • 4) EC50 and pEC50 values were determined.

[3] = target: NEK7-HiBiT protein (Homo sapiens, UniProt Q8TDX7); assay: NEK7-HiBiT degradation assay (Nano-Glo HiBiT Lytic Assay) in HEK293 NEK7-HiBiT cells; type: cell-based; settings: 24 h, conc. 0.1, 1 and 10 μM tested, concentration of the table values not stated, mean of 3 technical replicates
Sequence of NEK7-HiBiT protein (Q8TDX7 whole entry): as the sequence (Q8TDX7 whole entry) above
Sequence of NEK7-HiBiT protein (Q96SW2 whole entry, further chain): as the sequence (Q96SW2 whole entry) above
Sequence of NEK7-HiBiT protein (Q16531 whole entry partner): as the sequence (Q16531 whole entry partner) above
Procedure: HEK293 NEK7-HiBiT cells were generated using CRISPR-Cas9 system. HEK293 cells were transformed with pSpCas9-BB-2A-Puro v2.0 plasmid carrying gRNA targeting the N-terminus of NEK7 and ssODN template containing the HiBiT tag sequence with flanking homology sequences. Neon Transfection System (Thermo Fisher Scientific) was used for electroporation. HEK293 NEK7-HiBiT cells were cultured with DMEM Glutamax (Gibco) supplemented with 10% heat inactivated FBS (Gibco). After transfection the culture medium was changed to DMEM Glutamax with 10% heat-inactivated FBS and 1% Penicillin-Streptomycin (Biowest) supplemented with Puromycin (2 μg/ml; Invivogen) for clonal selection. In order to isolate single cell clones for further validation and analysis, limiting dilution cloning in 96-well plates was performed. When the single clones reached confluency, HiBiT Lytic Assay (Promega) was performed in order to identify HiBiT positive clones. The clone selected for further studies was verified and validated using genotyping and HiBiT Blotting (Promega).
Selected clone of HEK293 NEK7-HiBiT cells was maintained in the DMEM-Glutamax medium supplemented with 10% of heat-inactivated FBS (Gibco) and 1% of Penicillin-Streptomycin Solution 100x (Biowest) at 37° C., 5% CO2 and subcultured every 2-3 days.
For Nano-Glo HiBiT Lytic Assay HEK293 NEK7-HiBiT cells were seeded at the density 2×10^3 cells in triplicates in the 40 μL of growth medium per single well on 384 well plate (Greiner Bio-One). Compounds or DMSO were added to treatment plates using Echo555 Liquid Handler and incubated at 37° C., 5% CO2 for 24 hours. After incubation 40 μL of Nano-Glo HiBiT Lytic Reagent (prepared according to the manufacturer protocol) were added to 40 μL of the cell culture medium present in each well. The plate content was briefly mixed (460 rpm) on an orbital shaker to ensure cell lysis. The plate was left at RT protected from light for another 10 min to stabilize the luminescent signal. The luminescence signal was measured using CLARIOstar Multimode Plate Reader. Focus and gain were adjusted to DMSO treated cells. The results were calculated as the NEK7-HiBiT % relative to the DMSO control of 3 technical replicates relative to the DMSO control.
HEK293 NEK7-HiBiT cells were treated with the compounds (conc. 0.1, 1 and 10 μM) or DMSO for 24 h. After incubation with compounds NEK7-HiBiT degradation was measured as a luminescence signal using CLARIOstar Multimode Plate reader.
Additionally, compounds reducing NEK7-HiBiT protein level by >=50% at 0.1 μM, were also identified.

| Compound | Normalized AlphaLISA ternary complex average signal at 1 μM molecule [1] | activation at 1 µM [1] [%] | EC50 [2] [nM] | HTRF ternary complex Average pEC50 by molecule [2] | Levels of NEK7-HiBiT Protein (as a % of DMSO control) [3] |
| --- | --- | --- | --- | --- | --- |
| 3-(5-((2R,6R)-6-butyltetrahydro-2H-pyran-2-yl)-1-oxoisoindolin-2-yl)piperidine-2,6-dione and 3-(5-((2S,6S)-6-butyltetrahydro-2H-pyran-2-yl)-1-oxoisoindolin-2-yl)piperidine-2,6-dione [69 Isomer 2] | B (Normalized activity > 20% and <80%) | – | – | ++++ (7.0 > pEC50 > 6.5) | B (Levels of NEK7-HiBiT Protein > 25% and ≤50%) |
| 3-(5-((2R,6S)-6-butyltetrahydro-2H-pyran-2-yl)-1-oxoisoindolin-2-yl)piperidine-2,6-dione and 3-(5-((2S,6R)-6-butyltetrahydro-2H-pyran-2-yl)-1-oxoisoindolin-2-yl)piperidine-2,6-dione [69 Isomer 1] | A (Normalized activity > 80%) | – | – | +++ (6.5 > pEC50 > 6.0) | A (Levels of NEK7-HiBiT Protein ≤ 25%) |
| O=C1CCC(N2Cc3cc(C4CCC(c5ccccc5)CN4)ccc3C2=O)C(=O)N1 (single isomer, unassigned) [32 Isomer 1, 3-(1-oxo-5-(5-phenylpiperidin-2-yl)isoindolin-2-yl)piperidine-2,6-dione] | C (Normalized activity > 10% and <20%) | – | > 3160 | – | D (Levels of NEK7-HiBiT Protein ≥ 75%) |
| O=C1CCC(N2Cc3cc(C4CCC(c5ccccc5)CN4)ccc3C2=O)C(=O)N1 (single isomer, unassigned) [32 Isomer 2, 3-(1-oxo-5-(5-phenylpiperidin-2-yl)isoindolin-2-yl)piperidine-2,6-dione] | A (Normalized activity > 80%) | – | 316 to 1000 | – | A (Levels of NEK7-HiBiT Protein ≤ 25%) |
| O=C1CCC(N2Cc3cc(C4CCC(Cc5ccccc5)CN4)ccc3C2=O)C(=O)N1 (single isomer, unassigned) [35 Isomer 2, 3-(5-(5-benzylpiperidin-2-yl)-1-oxoisoindolin-2-yl)piperidine-2,6-dione] | – | – | – | – | B (Levels of NEK7-HiBiT Protein > 25% and ≤50%) |
| CC(C)(C)C(=O)OCN1C(=O)CCC(N2Cc3cc(C4CCCCN4)ccc3C2=O)C1=O (centres unmarked) [Compound 63, (2,6-dioxo-3-(1-oxo-5-(piperidin-2-yl)isoindolin-2-yl)piperidin-1-yl)methyl pivalate] | – | – | – | – | A (Levels of NEK7-HiBiT Protein ≤ 25%) |

Further lines, with some results ahead:

| Normalized AlphaLISA ternary complex average signal at 1 μM molecule [1] | activation at 1 µM [1] [%] | EC50 [2] [nM] | Compound | HTRF ternary complex Average pEC50 by molecule [2] | Levels of NEK7-HiBiT Protein (as a % of DMSO control) [3] |
| --- | --- | --- | --- | --- | --- |
| – | > 80 | 100 to 316 | CCCCC1CCC(c2ccc3c(c2)CN(C2CCC(=O)NC2=O)C3=O)NC1 (mixture of isomers) [Compound 37, 3-(5-(5-butylpiperidin-2-yl)-1-oxoisoindolin-2-yl)piperidine-2,6-dione] | – | B (Levels of NEK7-HiBiT Protein > 25% and ≤50%) |
| – | > 80 | 100 to 316 | CCCCC1CCCC(c2ccc3c(c2)CN(C2CCC(=O)NC2=O)C3=O)N1 (mixture of isomers) [Compound 40, 3-(5-(6-butylpiperidin-2-yl)-1-oxoisoindolin-2-yl)piperidine-2,6-dione] | – | A (Levels of NEK7-HiBiT Protein ≤ 25%) |
| – | 20 to 80 | 100 to 316 | CC(=O)NC1CCC(c2ccc3c(c2)CN(C2CCC(=O)NC2=O)C3=O)NC1 (single isomer, unassigned) [33 Isomer 1, N-(6-(2-(2,6-dioxopiperidin-3-yl)-1-oxoisoindolin-5-yl)piperidin-3-yl)acetamide] | – | A (Levels of NEK7-HiBiT Protein ≤ 25%) |
| B (Normalized activity > 20% and <80%) | – | – | CC(=O)NC1CCC(c2ccc3c(c2)CN(C2CCC(=O)NC2=O)C3=O)NC1 (single isomer, unassigned) [33 Isomer 2, N-(6-(2-(2,6-dioxopiperidin-3-yl)-1-oxoisoindolin-5-yl)piperidin-3-yl)acetamide] | ++++ (7.0 > pEC50 > 6.5) | B (Levels of NEK7-HiBiT Protein > 25% and ≤50%) |
| – | > 80 | 100 to 316 | O=C1CCC(N2Cc3cc(C4CCC(Cc5ccccc5)CN4)ccc3C2=O)C(=O)N1 (single isomer, unassigned) [35 Isomer 1, 3-(5-(5-benzylpiperidin-2-yl)-1-oxoisoindolin-2-yl)piperidine-2,6-dione] | – | B (Levels of NEK7-HiBiT Protein > 25% and ≤50%) |
| B (Normalized activity > 20% and <80%) | – | 316 to 1000 | CC(C)C1CCC(c2ccc3c(c2)CN(C2CCC(=O)NC2=O)C3=O)NC1 (single isomer, unassigned) [55 Isomer 1, 3-(5-(5-isopropylpiperidin-2-yl)-1-oxoisoindolin-2-yl)piperidine-2,6-dione] | – | C (Levels of NEK7-HiBiT Protein > 50% and <75%) |
| A (Normalized activity > 80%) | – | – | CC(C)C1CCC(c2ccc3c(c2)CN(C2CCC(=O)NC2=O)C3=O)NC1 (single isomer, unassigned) [55 Isomer 2, 3-(5-(5-isopropylpiperidin-2-yl)-1-oxoisoindolin-2-yl)piperidine-2,6-dione] | +++ (6.5 > pEC50 > 6.0) | B (Levels of NEK7-HiBiT Protein > 25% and ≤50%) |
